Data published in patent US9771369B2, “Compounds and methods for kinase modulation, and indications therefor” (Plexxikon Inc., priority 2014, dated 2017).

Tests used:
c-kit mutant D816V = c-kit mutant D816V (Homo sapiens (Human), UniProt P10721, D816V/DEL694-753); test: c-Kit mutant D816V biochemical assay (AlphaScreen kinase activity)
How it was run: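 Recombinant His-tagged c-Kit D816V kinase domain (residues 551-934, insert 694-753 deleted, E. coli-expressed) phosphorylating 30 nM biotin-(E4Y)10 with 10 μM ATP, HEPES pH 7.2, Mg/Mn, 5% DMSO; 30 min, room temperature. Phosphorylation detected by AlphaScreen (streptavidin donor/PY30 acceptor beads); IC50 from 8-point 1:3 series.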

[1] = tested on: BaF3-FL KIT D816V or BaF3-FL KIT V560G/D816V cell line; test: Cell-based assays of c-Kit mutant kinase activity (cell proliferation, ATPlite); details: at least one of the c-kit cell assays of Example 7
How it was run: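 BaF3 cells dependent on transfected full-length human KIT D816V or V560G/D816V (pCI-Neo, CMV promoter) were seeded at 1×10^4 cells/well and exposed to 8-point 1:3 dilutions from 10 μM top (0.2% DMSO) for three days at 37° C. ATPlite luminescence gave cell number; IC50 from concentration-response.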

c-kit mutant D816V, sequence (P10721 other isoform, or with tags, fused parts or gaps D816V/del 694-753): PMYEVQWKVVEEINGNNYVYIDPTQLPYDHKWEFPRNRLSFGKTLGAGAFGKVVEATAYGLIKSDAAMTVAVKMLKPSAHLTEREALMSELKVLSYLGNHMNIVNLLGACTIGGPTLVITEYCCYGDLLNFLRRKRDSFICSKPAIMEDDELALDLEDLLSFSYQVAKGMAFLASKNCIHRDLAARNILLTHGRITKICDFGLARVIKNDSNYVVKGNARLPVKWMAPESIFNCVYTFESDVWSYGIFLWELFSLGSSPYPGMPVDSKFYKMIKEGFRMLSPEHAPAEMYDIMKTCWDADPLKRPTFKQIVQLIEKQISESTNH

| SMILES | IC50 (c-kit mutant D816V) [µM] | IC50 [1] [nM] |
| --- | --- | --- |
| Cc1nc(C2CCN(c3ncnc4[nH]c(-c5ccc(F)cc5)cc34)CC2)[nH]c1-c1ccccc1 [P-3002, 6-(4-fluorophenyl)-4-[4-(4-methyl-5-phenyl-1H-imidazol-2-yl)-1-piperidyl]-7H-pyrrolo[2,3-d]pyrimidine] | 0.0001 to 1 | < 10000 |
| COc1cc(-c2cc3c(N4CCC(c5nc(C)c(-c6ccccc6)[nH]5)CC4)ncnc3[nH]2)ccn1 [P-3003, 6-(2-methoxy-4-pyridyl)-4-[4-(4-methyl-5-phenyl-1H-imidazol-2-yl)-1-piperidyl]-7H-pyrrolo[2,3-d]pyrimidine] | 0.0001 to 1 | < 10000 |
| Cc1cc2c(N3CCC(c4nc(C)c(-c5ccccc5)[nH]4)CC3)ncnc2[nH]1 [P-3004, 6-methyl-4-[4-(4-methyl-5-phenyl-1H-imidazol-2-yl)-1-piperidyl]-7H-pyrrolo[2,3-d]pyrimidine] | 1 to 10 | < 10000 |
| Cc1cc2c(N3CCC(c4nc(C)c(-c5ccc(F)cc5)[nH]4)CC3)ncnc2[nH]1 [P-3005, 4-[4-[5-(4-fluorophenyl)-4-methyl-1H-imidazol-2-yl]-1-piperidyl]-6-methyl-7H-pyrrolo[2,3-d]pyrimidine] | 1 to 10 | < 10000 |
| COc1cc(-c2cc3c(N4CCC(c5nc(C)c(-c6cccc(F)c6)[nH]5)CC4)ncnc3[nH]2)ccn1 [P-3019, 4-[4-[5-(3-fluorophenyl)-4-methyl-1H-imidazol-2-yl]-1-piperidyl]-6-(2-methoxy-4-pyridyl)-7H-pyrrolo[2,3-d]pyrimidine] | 0.0001 to 1 | < 10000 |
| Cc1nc(C2CCN(c3ncnc4[nH]c(-c5ccc(C#N)cc5)cc34)CC2)[nH]c1-c1ccc(F)cc1 [P-3020, 4-[4-[4-[5-(4-fluorophenyl)-4-methyl-1H-imidazol-2-yl]-1-piperidyl]-7H-pyrrolo[2,3-d]pyrimidin-6-yl]benzonitrile] | 0.0001 to 1 | < 10000 |
| COc1cccc(-c2[nH]c(C3CCN(c4ncnc5[nH]c(-c6ccc(C#N)cc6)cc45)CC3)nc2C)c1 [P-3021, 4-[4-[4-[5-(3-methoxyphenyl)-4-methyl-1H-imidazol-2-yl]-1-piperidyl]-7H-pyrrolo[2,3-d]pyrimidin-6-yl]benzonitrile] | 0.0001 to 1 | < 10000 |
| COc1cccc(-c2[nH]c(C3CCN(c4ncnc5[nH]c(-c6ccnc(OC)c6)cc45)CC3)nc2C)c1 [P-3022, 4-[4-[5-(3-methoxyphenyl)-4-methyl-1H-imidazol-2-yl]-1-piperidyl]-6-(2-methoxy-4-pyridyl)-7H-pyrrolo[2,3-d]pyrimidine] | 0.0001 to 1 | < 10000 |
| COc1cc(-c2cc3c(N4CCC(c5nc(C)c(-c6ccc(OC)c(C)c6)[nH]5)CC4)ncnc3[nH]2)ccn1 [P-3023, 4-[4-[5-(4-methoxy-3-methyl-phenyl)-4-methyl-1H-imidazol-2-yl]-1-piperidyl]-6-(2-methoxy-4-pyridyl)-7H-pyrrolo[2,3-d]pyrimidine] | 0.0001 to 1 | < 10000 |
| CCOc1cccc(-c2[nH]c(C3CCN(c4ncnc5[nH]c(-c6ccc(F)cc6)cc45)CC3)nc2C)c1 [P-3024, 4-[4-[5-(3-ethoxyphenyl)-4-methyl-1H-imidazol-2-yl]-1-piperidyl]-6-(4-fluorophenyl)-7H-pyrrolo[2,3-d]pyrimidine] | 0.0001 to 1 | < 10000 |
| CCOc1cccc(-c2[nH]c(C3CCN(c4ncnc5[nH]c(-c6ccc(C#N)cc6)cc45)CC3)nc2C)c1 [P-3025, 4-[4-[4-[5-(3-ethoxyphenyl)-4-methyl-1H-imidazol-2-yl]-1-piperidyl]-7H-pyrrolo[2,3-d]pyrimidin-6-yl]benzonitrile] | 0.0001 to 1 | < 10000 |
| CCOc1ccc(-c2[nH]c(C3CCN(c4ncnc5[nH]c(-c6ccc(F)cc6)cc45)CC3)nc2C)cc1 [P-3026, 4-[4-[5-(4-ethoxyphenyl)-4-methyl-1H-imidazol-2-yl]-1-piperidyl]-6-(4-fluorophenyl)-7H-pyrrolo[2,3-d]pyrimidine] | 0.0001 to 1 | < 10000 |
| CCOc1ccc(-c2[nH]c(C3CCN(c4ncnc5[nH]c(-c6ccc(C#N)cc6)cc45)CC3)nc2C)cc1 [P-3027, 4-[4-[4-[5-(4-ethoxyphenyl)-4-methyl-1H-imidazol-2-yl]-1-piperidyl]-7H-pyrrolo[2,3-d]pyrimidin-6-yl]benzonitrile] | 0.0001 to 1 | < 10000 |
| COc1ccc(-c2[nH]c(C3CCN(c4ncnc5[nH]c(-c6ccc(F)cc6)cc45)CC3)nc2C)cc1 [P-3028, 6-(4-fluorophenyl)-4-[4-[5-(4-methoxyphenyl)-4-methyl-1H-imidazol-2-yl]-1-piperidyl]-7H-pyrrolo[2,3-d]pyrimidine] | 0.0001 to 1 | < 10000 |
| COc1ccc(-c2[nH]c(C3CCN(c4ncnc5[nH]c(-c6ccc(F)cc6)cc45)CC3)nc2C)cc1C [P-3029, 6-(4-fluorophenyl)-4-[4-[5-(4-methoxy-3-methyl-phenyl)-4-methyl-1H-imidazol-2-yl]-1-piperidyl]-7H-pyrrolo[2,3-d]pyrimidine] | 0.0001 to 1 | < 10000 |
| COc1ccc(-c2[nH]c(C3CCN(c4ncnc5[nH]c(-c6ccc(C#N)cc6)cc45)CC3)nc2C)cc1C [P-3030, 4-[4-[4-[5-(4-methoxy-3-methyl-phenyl)-4-methyl-1H-imidazol-2-yl]-1-piperidyl]-7H-pyrrolo[2,3-d]pyrimidin-6-yl]benzonitrile] | 0.0001 to 1 | < 10000 |
| CCOc1ccc(-c2[nH]c(C3CCN(c4ncnc5[nH]c(-c6ccnc(OC)c6)cc45)CC3)nc2C)cc1 [P-3031, 4-[4-[5-(4-ethoxyphenyl)-4-methyl-1H-imidazol-2-yl]-1-piperidyl]-6-(2-methoxy-4-pyridyl)-7H-pyrrolo[2,3-d]pyrimidine] | 0.0001 to 1 | < 10000 |
| Cc1nc(C2(C)CCN(c3ncnc4[nH]c(-c5ccc(F)cc5)cc34)CC2)[nH]c1-c1ccccc1 [P-3032, 6-(4-fluorophenyl)-4-[4-methyl-4-(4-methyl-5-phenyl-1H-imidazol-2-yl)-1-piperidyl]-7H-pyrrolo[2,3-d]pyrimidine] | 0.0001 to 1 | < 10000 |
| COc1cc(-c2cc3c(N4CCC(C)(c5nc(C)c(-c6ccccc6)[nH]5)CC4)ncnc3[nH]2)ccn1 [P-3033, 6-(2-methoxy-4-pyridyl)-4-[4-methyl-4-(4-methyl-5-phenyl-1H-imidazol-2-yl)-1-piperidyl]-7H-pyrrolo[2,3-d]pyrimidine] | 0.0001 to 1 | < 10000 |
| CCOc1cccc(-c2[nH]c(C3CCN(c4ncnc5[nH]c(-c6ccnc(OC)c6)cc45)CC3)nc2C)c1 [P-3034, 4-[4-[5-(3-ethoxyphenyl)-4-methyl-1H-imidazol-2-yl]-1-piperidyl]-6-(2-methoxy-4-pyridyl)-7H-pyrrolo[2,3-d]pyrimidine] | 0.0001 to 1 | < 10000 |
| Cc1nc(C2CCN(c3ncnc4[nH]c(-c5ccc(F)cc5)cc34)CC2)[nH]c1-c1ccc(Cl)cc1 [P-3035, 4-[4-[5-(4-chlorophenyl)-4-methyl-1H-imidazol-2-yl]-1-piperidyl]-6-(4-fluorophenyl)-7H-pyrrolo[2,3-d]pyrimidine] | 0.0001 to 1 | < 10000 |
| COc1ccc(-c2[nH]c(C3CCN(c4ncnc5[nH]c(-c6ccc(F)cc6)cc45)CC3)nc2C)cc1OC [P-3036, 4-[4-[5-(3,4-dimethoxyphenyl)-4-methyl-1H-imidazol-2-yl]-1-piperidyl]-6-(4-fluorophenyl)-7H-pyrrolo[2,3-d]pyrimidine] | 0.0001 to 1 | < 10000 |
